Test results as given in ChEMBL document CHEMBL1909294, “Translating clinical findings into knowledge in drug safety evaluation--drug induced liver injury prediction system (DILIps)” (PLoS Comput Biol, 2011).

Experiments:
[1] = tested on: Hepatotoxicity;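 for HepSE Combined Scores: combined hepatic side effect score as listed in the training data of the Drug Induced Liver Injury Prediction System (DILIps)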;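 for HepSE cholelithiasis: hepatic side effect score for cholelithiasis, drawn from the DILIps training data for predicting drug-induced liver injury; call rule not given here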;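 for HepSE hepatic necrosis: score of hepatic side effects for hepatic necrosis, drawn from the training data of DILIps, a prediction system for drug-induced liver injury; call rule not given here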;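 for HepSE hepatomegaly: hepatic side effect score for hepatomegaly, taken from the training set of the DILIps drug-induced liver injury prediction system; call rule not given here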;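 for HepSE jaundice: Jaundice-related hepatic side-effect score drawn from the training data of the DILIps (drug-induced liver injury prediction system); call rule not given here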;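 for HepSE liver function tests abnormal: hepatic side effect score taken from the DILIps (drug-induced liver injury prediction system) training data, here covering abnormal liver function test findings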
[2] = tested on: Hepatotoxicity; remark: listed apart in the source;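 for HepSE Combined Scores: combined hepatic side effect score as listed in the training data of the Drug Induced Liver Injury Prediction System (DILIps)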;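 for HepSE cholelithiasis: hepatic side effect score for cholelithiasis, drawn from the DILIps training data for predicting drug-induced liver injury; call rule not given here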;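 for HepSE hepatic necrosis: score of hepatic side effects for hepatic necrosis, drawn from the training data of DILIps, a prediction system for drug-induced liver injury; call rule not given here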;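 for HepSE hepatomegaly: hepatic side effect score for hepatomegaly, taken from the training set of the DILIps drug-induced liver injury prediction system; call rule not given here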;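 for HepSE jaundice: Jaundice-related hepatic side-effect score drawn from the training data of the DILIps (drug-induced liver injury prediction system); call rule not given here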;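 for HepSE liver function tests abnormal: hepatic side effect score taken from the DILIps (drug-induced liver injury prediction system) training data, here covering abnormal liver function test findings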
[3] = tested on: Hepatotoxicity; remark: listed apart in the source;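 for HepSE Combined Scores: combined hepatic side effect score as listed in the training data of the Drug Induced Liver Injury Prediction System (DILIps)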;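 for HepSE hepatic necrosis: score of hepatic side effects for hepatic necrosis, drawn from the training data of DILIps, a prediction system for drug-induced liver injury; call rule not given here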;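 for HepSE hepatomegaly: hepatic side effect score for hepatomegaly, taken from the training set of the DILIps drug-induced liver injury prediction system; call rule not given here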;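 for HepSE jaundice: Jaundice-related hepatic side-effect score drawn from the training data of the DILIps (drug-induced liver injury prediction system); call rule not given here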;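 for HepSE liver function tests abnormal: hepatic side effect score taken from the DILIps (drug-induced liver injury prediction system) training data, here covering abnormal liver function test findings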
[4] = tested on: Hepatotoxicity; remark: listed apart in the source;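 for HepSE Combined Scores: combined hepatic side effect score as listed in the training data of the Drug Induced Liver Injury Prediction System (DILIps)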;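 for HepSE hepatic necrosis: score of hepatic side effects for hepatic necrosis, drawn from the training data of DILIps, a prediction system for drug-induced liver injury; call rule not given here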;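 for HepSE hepatomegaly: hepatic side effect score for hepatomegaly, taken from the training set of the DILIps drug-induced liver injury prediction system; call rule not given here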;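 for HepSE jaundice: Jaundice-related hepatic side-effect score drawn from the training data of the DILIps (drug-induced liver injury prediction system); call rule not given here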;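 for HepSE liver function tests abnormal: hepatic side effect score taken from the DILIps (drug-induced liver injury prediction system) training data, here covering abnormal liver function test findings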
[5] = tested on: Hepatotoxicity; remark: listed apart in the source
[6] = tested on: Hepatotoxicity; remark: listed apart in the source
[7] = tested on: Hepatotoxicity; remark: listed apart in the source
[8] = tested on: Hepatotoxicity; remark: listed apart in the source
[9] = tested on: Hepatotoxicity; remark: listed apart in the source
[10] = tested on: Hepatotoxicity; remark: listed apart in the source
[11] = tested on: Hepatotoxicity; remark: listed apart in the source
[12] = tested on: Hepatotoxicity; remark: listed apart in the source
[13] = tested on: Hepatotoxicity; remark: listed apart in the source
[14] = tested on: Hepatotoxicity; remark: listed apart in the source

SMILES | HepSE_liver function tests abnormal [1] | HepSE_jaundice [2] | HepSE_hepatomegaly [3] | HepSE_hepatic necrosis [4] | HepSE_hepatitis [5] | HepSE_bilirubinemia [6] | HepSE_Combined Scores [7] | HepSE_cholelithiasis [8] | HepSE_liver disease [9] | HepSE_cholecystitis [10] | HepSE_elevated liver function tests [11] | HepSE_liver fatty [12] | HepSE_hepatic failure [13] | HepSE_cirrhosis [14] | further results
Cc1cccc(C)c1NC(=O)C1CCCCN1C (configuration not stated) [MEPIVACAINE] | 0 | 0 | 0 | 0 | 0 | 0 | 0 | 0 | 0 | 0 | 0 | 0 | 0 | 0 | –
CCCC(C)(COC(N)=O)COC(N)=O [MEPROBAMATE] | 0 | 0 | 0 | 0 | 0 | 0 | 0 | 0 | 0 | 0 | 0 | 0 | 0 | 0 | –
Sc1ncnc2nc[nH]c12 [MERCAPTOPURINE ANHYDROUS] | – | – | – | – | – | – | – | – | – | – | – | – | – | – | HepSE_liver function tests abnormal ([1]; Liver): 0; HepSE_jaundice ([2]; Liver): 0; HepSE_hepatomegaly ([3]; Liver): 0; HepSE_hepatic necrosis ([4]; Liver): 0; HepSE_hepatitis ([5]; Liver): 0; HepSE_bilirubinemia ([6]; Liver): 0; HepSE_Combined Scores ([7]; Liver): 0; HepSE_cholelithiasis ([8]; Liver): 0; HepSE_liver disease ([9]; Liver): 0; HepSE_cholecystitis ([10]; Liver): 0; HepSE_elevated liver function tests ([11]; Liver): 0; HepSE_liver fatty ([12]; Liver): 0; HepSE_hepatic failure ([13]; Liver): 0; HepSE_cirrhosis ([14]; Liver): 0
C[C@@H](O)[C@H]1C(=O)N2C(C(=O)O)=C(S[C@@H]3CN[C@H](C(=O)N(C)C)C3)[C@H](C)[C@H]12 [MEROPENEM] | 0 | 1 | 0 | 0 | 1 | 0 | 3 | 0 | 0 | 0 | 0 | 0 | 1 | 0 | –
Nc1ccc(O)c(C(=O)O)c1 [MESALAMINE] | 0 | 1 | 0 | 1 | 1 | 0 | 8 | 1 | 0 | 1 | 1 | 0 | 1 | 1 | –
O=S(=O)([O-])CCS.[Na+] [MESNA] | 0 | 0 | 0 | 0 | 0 | 0 | 0 | 0 | 0 | 0 | 0 | 0 | 0 | 0 | –
CN1CCCCC1CCN1c2ccccc2Sc2ccc([S+](C)[O-])cc21 (configuration not stated) [MESORIDAZINE] | – | – | – | – | – | – | – | – | – | – | – | – | – | – | HepSE_liver function tests abnormal ([1]; Liver): 0; HepSE_jaundice ([2]; Liver): 1; HepSE_hepatomegaly ([3]; Liver): 0; HepSE_hepatic necrosis ([4]; Liver): 0; HepSE_hepatitis ([5]; Liver): 0; HepSE_bilirubinemia ([6]; Liver): 0; HepSE_Combined Scores ([7]; Liver): 1; HepSE_cholelithiasis ([8]; Liver): 0; HepSE_liver disease ([9]; Liver): 0; HepSE_cholecystitis ([10]; Liver): 0; HepSE_elevated liver function tests ([11]; Liver): 0; HepSE_liver fatty ([12]; Liver): 0; HepSE_hepatic failure ([13]; Liver): 0; HepSE_cirrhosis ([14]; Liver): 0
CC(C)NCC(O)c1cc(O)cc(O)c1 (configuration not stated) [METAPROTERENOL] | 0 | 0 | 0 | 0 | 0 | 0 | 0 | 0 | 0 | 0 | 0 | 0 | 0 | 0 | –
CN(C)C(=N)N=C(N)N [METFORMIN] | – | – | – | – | – | – | – | – | – | – | – | – | – | – | HepSE_liver function tests abnormal ([1]; Liver): 1; HepSE_jaundice ([2]; Liver): 0; HepSE_hepatomegaly ([3]; Liver): 0; HepSE_hepatic necrosis ([4]; Liver): 0; HepSE_hepatitis ([5]; Liver): 1; HepSE_bilirubinemia ([6]; Liver): 0; HepSE_Combined Scores ([7]; Liver): 2; HepSE_cholelithiasis ([8]; Liver): 0; HepSE_liver disease ([9]; Liver): 0; HepSE_cholecystitis ([10]; Liver): 0; HepSE_elevated liver function tests ([11]; Liver): 0; HepSE_liver fatty ([12]; Liver): 0; HepSE_hepatic failure ([13]; Liver): 0; HepSE_cirrhosis ([14]; Liver): 0
CCC(=O)C(CC(C)N(C)C)(c1ccccc1)c1ccccc1 (configuration not stated) [METHADONE] | 0 | 0 | 0 | 0 | 0 | 0 | 0 | 0 | 0 | 0 | 0 | 0 | 0 | 0 | –
CN[C@@H](C)Cc1ccccc1 [METHAMPHETAMINE] | 0 | 0 | 0 | 0 | 0 | 0 | 0 | 0 | 0 | 0 | 0 | 0 | 0 | 0 | –
CC(=O)/N=c1/sc(S(N)(=O)=O)nn1C [METHAZOLAMIDE] | 0 | 0 | 0 | 1 | 0 | 0 | 1 | 0 | 0 | 0 | 0 | 0 | 0 | 0 | –
C1N2CN3CN1CN(C2)C3 [METHENAMINE] | 0 | 0 | 0 | 0 | 0 | 0 | 0 | 0 | 0 | 0 | 0 | 0 | 0 | 0 | –
